The text below walks through data of US7175853B1, “Therapeutic system which can be moisture-activated” (LTS Lohmann Therapie-Systeme AG, priority 1998, dated 2007).

The data set in a line: Dehydration behaviour of activators by Difference Scanning Calorimetry (DSC). It counts as physicochemical. To be noted: FIG. 14a-c. From the text: The dehydration behaviour of these substances was examined in three example substances by Difference Scanning Calorimetry (DSC). This thermal analysis provides information on the stages of dehydration taking place under energy absorption, and on the respective typical temperature.

In the case of `O.O.O.O.O.O=[Si]([O-])[O-].[Na+].[Na+]` [Na2SiO3.5H2O, sodium metasilicate pentahydrate], the dehydration temperature is 86.5 °C.
